Target: G12C K-Ras4B (1-169) (Homo sapiens (Human), UniProt P01116, G12C)
Assay: Test of compounds on whether to bind to KRASG12C (LC-MS compound binding rate)
Settings: final compound concentration of 2 μM, 1 μM protein, 25° C. for 2 hours
Description: Test compounds were prepared in the form of a 10 mM DMSO solution.
K-Ras4B (1-169) and G12C K-Ras4B (1-169) proteins were mixed and diluted with a buffer (1×TBS, 0.1 mM TCEP) to prepare individual 1 μM protein solutions. A 10 mM test compound was diluted tenfold with DMSO to make a 1 mM solution, and then diluted fivefold with DMSO to make a 200 μM solution. The 200 μM solution was further diluted fivefold to make a 40 μM solution. When the final compound concentration was 10 μM, 1 μL of a 200 μM test compound was added to 19 μL of a 1 μM protein solution. When the final compound concentration was 2 μM, 1 μL of a 40 μM test compound was added to 19 μL of a 1 μM protein solution. The mixtures were stored in an incubator at 25° C. for 2 hours, and 80 μL of a 1×TBS solution containing 0.2% formic acid was added thereto to end the reaction, followed by LC-MS measurement. LC-MS measurement was performed using Xevo G2-S Q-Tof manufactured by Waters, and reverse-phase chromatography was performed with a desalting column. A mass spectrum of positive ions was obtained by electrospray. For a mass spectrum, a spectrum of a polyvalent ion was collectively converted to a molecular weight by using OpenLynx software by the MaxEnt technique, and a compound binding rate was obtained from the ratio of a signal intensity that corresponds to the molecular weight of a protein to a signal intensity that corresponds to the molecular weight of a compound binding to the protein.
By obtaining the compound binding rate for K-Ras4B (1-169) and the compound binding rate for G12C K-Ras4B (1-169) at the same time, information of the selectivity for G12C K-Ras4B (1-169) was obtained at the same time.
The test compounds were measured at their final compound concentration of 2 μM. […] Almost no compounds of the present invention binded to K-Ras4B (1-169). The “binding rate” (%) for each of K-Ras4B (1-169) and G12C K-Ras4B (1-169) refers to the ratio of the signal intensity of binded forms to the sum of the signal intensity of non-binded forms and the signal intensity of binded forms.

Chain of G12C K-Ras4B (1-169) (P01116 other isoform, or with tags, fused parts or gaps G12C): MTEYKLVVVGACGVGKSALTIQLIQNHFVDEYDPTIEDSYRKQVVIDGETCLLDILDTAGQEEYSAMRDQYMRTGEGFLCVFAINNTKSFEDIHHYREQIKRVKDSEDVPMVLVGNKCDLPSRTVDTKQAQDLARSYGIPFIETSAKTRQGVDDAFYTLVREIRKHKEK

Compound | binding rate for G12C K-Ras4B (1-169)
C=CC(=O)N1CC(NC(=O)c2c(Cl)nc(CNc3n[nH]c4cc(Cl)c(C(=C)C(F)(F)F)cc34)n2C(C)C)C1 [Example 43, N-(1-acryloylazetidin-3-yl)-4-chloro-2-(((6-chloro-5-(3,3,3-trifluoroprop-1-en-2-yl)-1H-indazol-3-yl)amino)methyl)-1-isopropyl-1H-imidazole-5-carboxamide] | C (a binding rate of 40% or more and less than 60% is rated “C,”)
C=CC(=O)N1CC(NC(=O)c2c(Cl)nc(CNc3n[nH]c4cc(Cl)c(C5(C(F)(F)F)CC5)cc34)n2C(C)C)C1 [Example 44, N-(1-acryloylazetidin-3-yl)-4-chloro-2-(((6-chloro-5-(1-(trifluoromethyl)cyclopropyl)-1H-indazol-3-yl)amino)methyl)-1-isopropyl-1H-imidazole-5-carboxamide] | B (a binding rate of 60% or more and less than 80% is rated “B,”)
C=CC(=O)N1CC(NC(=O)c2c(Cl)nc(CNc3n[nH]c4cc(Cl)c(C(C)C)cc34)n2C(C)C)C1 [Example 45, N-(1-acryloylazetidin-3-yl)-4-chloro-2-(((6-chloro-5-isopropyl-1H-indazol-3-yl)amino)methyl)-1-isopropyl-1H-imidazole-5-carboxamide] | A (a binding rate of 80% or more is rated “A,”)
C=CC(=O)NC1CN(C(=O)c2c(C)nc(CNc3n[nH]c4cc(Cl)c(C(C)(C)C)cc34)n2C)C1 [Example 46, N-(1-(2-(((5-(tert-butyl)-6-chloro-1H-indazol-3-yl)amino)methyl)-1,4-dimethyl-1H-imidazole-5-carbonyl)azetidin-3-yl) acrylamide] | B (a binding rate of 60% or more and less than 80% is rated “B,”)
C=CC(=O)N1CCC(NC(=O)c2c(C)nc(CNc3n[nH]c4cc(Cl)c(C(C)(C)C)cc34)n2C)CC1 [Example 47, N-(1-acryloylpiperidin-4-yl)-2-(((5-(tert-butyl)-6-chloro-1H-indazol-3-yl)amino)methyl)-1,4-dimethyl-1H-imidazole-5-carboxamide] | C (a binding rate of 40% or more and less than 60% is rated “C,”)
C=CC(=O)N1CCC(NC(=O)c2c(C)nc(CNc3n[nH]c4cc(Cl)c(C(C)(C)C)cc34)n2C)C1 (centres unmarked) [Example 48, N-(1-acryloylpyrrolidin-3-yl)-2-(((5-(tert-butyl)-6-chloro-1H-indazol-3-yl)amino)methyl)-1,4-dimethyl-1H-imidazole-5-carboxamide] | B (a binding rate of 60% or more and less than 80% is rated “B,”)
C=CC(=O)N1CC(N(C)C(=O)c2c(C)nc(CNc3n[nH]c4cc(Cl)c(C(C)(C)C)cc34)n2C)C1 [Example 49, N-(1-acryloylazetidin-3-yl)-2-(((5-(tert-butyl)-6-chloro-1H-indazol-3-yl)amino)methyl)-N,1,4-trimethyl-1H-imidazole-5-carboxamide] | C (a binding rate of 40% or more and less than 60% is rated “C,”)
C=CC(=O)N1CCN(C(=O)c2c(C)nc(CNc3n[nH]c4cc(Cl)c(C(C)(C)C)cc34)n2C)CC1 [Example 50, 1-(4-(2-(((5-(Tert-butyl)-6-chloro-1H-indazol-3-yl)amino)methyl)-1,4-dimethyl-1H-imidazole-5-carbonyl)piperazin-1-yl)prop-2-en-1-one] | C (a binding rate of 40% or more and less than 60% is rated “C,”)
C=CC(=O)N(C)C1CN(C(=O)c2c(C)nc(CNc3n[nH]c4cc(Cl)c(C(C)(C)C)cc34)n2C)C1 [Example 51, N-(1-(2-(((5-(tert-butyl)-6-chloro-1H-indazol-3-yl)amino)methyl)-1,4-dimethyl-1H-imidazole-5-carbonyl)azetidin-3-yl)-N-methylacrylamide] | B (a binding rate of 60% or more and less than 80% is rated “B,”)
C=CC(=O)N1CC(NC(=O)c2c(C)nc(CNc3n[nH]c4cc(Cl)c(C(C)(C)C)cc34)n2C)C(F)(F)C1 (centres unmarked) [Example 53, N-(1-acryloyl-4,4-difluoropyrrolidin-3-yl)-2-(((5-(tert-butyl)-6-chloro-1H-indazol-3-yl)amino)methyl)-1,4-dimethyl-1H-imidazole-5-carboxamide] | B (a binding rate of 60% or more and less than 80% is rated “B,”)
C=CC(=O)N1C[C@H](NC(=O)c2c(C)nc(CNc3n[nH]c4cc(Cl)c(C(C)(C)C)cc34)n2C)C2(CC2)C1 [Example 54, (R)—N-(5-acryloyl-5-azaspiro[2.4]heptan-7-yl)-2-(((5-(tert-butyl)-6-chloro-1H-indazol-3-yl)amino)methyl)-1,4-dimethyl-1H-imidazole-5-carboxamide] | B (a binding rate of 60% or more and less than 80% is rated “B,”)
C=CC(=O)N1C[C@@H](C)[C@@H](NC(=O)c2c(C)nc(CNc3n[nH]c4cc(Cl)c(C(C)(C)C)cc34)n2C)C1 [Example 55, N-((3R,4R)-1-acryloyl-4-methylpyrrolidin-3-yl)-2-(((5-(tert-butyl)-6-chloro-1H-indazol-3-yl)amino)methyl)-1,4-dimethyl-1H-imidazole-5-carboxamide] | A (a binding rate of 80% or more is rated “A,”)
C=CC(=O)N1C[C@@H](O)[C@@H](NC(=O)c2c(C)nc(CNc3n[nH]c4cc(Cl)c(C(C)(C)C)cc34)n2C)C1 [Example 56, N-((3S,4R)-1-acryloyl-4-hydroxypyrrolidin-3-yl)-2-(((5-(tert-butyl)-6-chloro-1H-indazol-3-yl)amino)methyl)-1,4-dimethyl-1H-imidazole-5-carboxamide] | C (a binding rate of 40% or more and less than 60% is rated “C,”)
C=CC(=O)N1C[C@@H](F)[C@@H](NC(=O)c2c(C)nc(CNc3n[nH]c4cc(Cl)c(C(C)(C)C)cc34)n2C)C1 [Example 57, N-((3S,4R)-1-acryloyl-4-fluoropyrrolidin-3-yl)-2-(((5-(tert-butyl)-6-chloro-1H-indazol-3-yl)amino)methyl)-1,4-dimethyl-1H-imidazole-5-carboxamide] | C (a binding rate of 40% or more and less than 60% is rated “C,”)
C=CC(=O)N1C[C@@H](CO)[C@@H](NC(=O)c2c(C)nc(CNc3n[nH]c4cc(Cl)c(C(C)(C)C)cc34)n2C)C1 [Example 58, N-((3R,4R)-1-acryloyl-4-(hydroxymethyl)pyrrolidin-3-yl)-2-(((5-(tert-butyl)-6-chloro-1H-indazol-3-yl)amino)methyl)-1,4-dimethyl-1H-imidazole-5-carboxamide] | B (a binding rate of 60% or more and less than 80% is rated “B,”)
C=CC(=O)N1C[C@H](NC(=O)c2c(C)nc(CNc3n[nH]c4cc(Cl)c(C(C)(C)C)cc34)n2C)[C@@H](C)C1 [Example 60, N-((3R,4S)-1-acryloyl-4-methylpyrrolidin-3-yl)-2-(((5-(tert-butyl)-6-chloro-1H-indazol-3-yl)amino)methyl)-1,4-dimethyl-1H-imidazole-5-carboxamide] | C (a binding rate of 40% or more and less than 60% is rated “C,”)
C=CC(=O)N1C[C@H](NC(=O)c2c(C)nc(CNc3n[nH]c4cc(Cl)c(C(C)(C)C)cc34)n2C)[C@H](OC)C1 [Example 61, N-((3S,4R)-1-acryloyl-4-methoxypyrrolidin-3-yl)-2-(((5-(tert-butyl)-6-chloro-1H-indazol-3-yl)amino)methyl)-1,4-dimethyl-1H-imidazole-5-carboxamide] | B (a binding rate of 60% or more and less than 80% is rated “B,”)
C=CC(=O)N1C[C@H](NC(=O)c2c(C)nc(CNc3n[nH]c4cc(Cl)c(C(C)(C)C)cc34)n2C)[C@@H](O)C1 [Example 62, N-((3S,4S)-1-acryloyl-4-hydroxypyrrolidin-3-yl)-2-(((5-(tert-butyl)-6-chloro-1H-indazol-3-yl)amino)methyl)-1,4-dimethyl-1H-imidazole-5-carboxamide] | A (a binding rate of 80% or more is rated “A,”)
C=CC(=O)N1C[C@H](NC(=O)c2c(C)nc(CNc3n[nH]c4cc(Cl)c(C(C)(C)C)cc34)n2C)[C@@H](OC)C1 [Example 63, N-((3S,4S)-1-acryloyl-4-methoxypyrrolidin-3-yl)-2-(((5-(tert-butyl)-6-chloro-1H-indazol-3-yl)amino)methyl)-1,4-dimethyl-1H-imidazole-5-carboxamide] | B (a binding rate of 60% or more and less than 80% is rated “B,”)
C=CC(=O)N1C[C@@H](CC#N)[C@@H](NC(=O)c2c(C)nc(CNc3n[nH]c4cc(Cl)c(C(C)(C)C)cc34)n2C)C1 [Example 65, N-((3R,4R)-1-acryloyl-4-(cyanomethyl)pyrrolidin-3-yl)-2-(((5-(tert-butyl)-6-chloro-1H-indazol-3-yl)amino)methyl)-1,4-dimethyl-1H-imidazole-5-carboxamide] | B (a binding rate of 60% or more and less than 80% is rated “B,”)

Source: patent US12065430B2, “Indazole compound or salt thereof” (TAIHO PHARMACEUTICAL CO., LTD., priority 2018, dated 2024)
